# pKi: −log10 of the molar value. Where two headings read alike, the source gives them in different places.
# What was measured:
# [1] = test system: HCV subgenomic replicon (clone 16) in Huh-7 cells; assay type: cell-based, Hepatitis C Virus
# Description: We examined the mutagenic effect of ribavirin and other IMPDH inhibitors on HCV using the recently developed HCV replicon system. See German Patent No. DE19915178A1 to Bartenschlager, the disclosure of which is hereby incorporated by reference in its entirety. In the replicon system, an autonomously replicating clone of HCV comprising HCV 5′-NTR (NTR non translated region), NS3, NS4A, NS4B, NS5A, NS5B and a neomycin selectable marker gene that is linked to the HCV genes is inserted into human hepatoma cell line known as Huh-7 cells. The HCV-RNAs produced by the autonomously replicating clone of HCV in the Huh-7 cells are extracted and retransfected into naïve Huh-7 cells to evaluate the replication competence and efficiency of the HCV-RNA. Therefore, the effect of anti-viral treatments on the HCV-RNAs produced may be evaluated by growing the replicon cells in the presence or absence of such anti-viral treatments, then extracting the replicon RNA from treated cells and transfecting it into naive Huh 7 cells and measuring colony formation. The effect of the combination of ribavirin, and IMPDH inhibitors on HCV replication in vitro was evaluated using the replicon system as described below.
# HCV Cell Culture System. Human hepatoma cell line Huh-7 cells were grown in Dulbecco's modified minimal essential medium (DMEM, Cellgro) supplemented with 10% fetal bovine serum, 4 mM L-glutamine, non-essential amino acids, 10 mM HEPES, 0.075% sodium bicarbonate, 100 U/ml penicillin and 100 ug/ml streptomycin, and 1 mM sodium pyruvate. HCV subgenomic replicon (clone 16, containing NS5A S1I791 adaptive mutation as described in Blight et al., Science 290:1972 (2000)) was constructed by Schering-Plough Research Institute as described by R. Bartenschlager. See Lohmann, et al., Science 285:5424 (2000). The replicon-bearing Huh-7 cells were maintained in the same media as described above with 0.5 mg/ml G418 (Geneticin, Gibco-BRL).
# HCV RNA Replicon Copy Number measurement by Taqman assays. Replicon cells were seeded at 3000 cells per well in 96-well Bio-coated plates (Becton Dickinson) and allowed to adhere overnight. The next day the culture medium was replaced with 5% serum medium containing the experimental compound. After 72 hours the plate was harvested by aspirating medium, washing with PBS twice, and putting in […] cell lysis buffer (Ambion, catalog No. 8722). The plate was then heated at 75° C. for 5 min followed by freezing at −70° C. for 10 min. The cell lysate was then measured for HCV replicon copy number by one-step real-time RT-PCR (Taqman assay) using an ABI 7700 instrument. The primers, which correspond to HCV NS5B, are: forward, 5′-[…]-3′ (SEQ ID NO: 1), and reverse, 5′-[…]-3′ (SEQ ID NO: 2). The double fluorescence-labeled probe (5′-[…]-3′) (SEQ ID NO: 3) was purchased from Applied Biosystems (part No. P6448-6464). The cellular GAPDH (glyceraldehyde 3-phosphate dehydrogenase) mRNA from the same cell lysate was used as an internal control for cell number and metabolic status (primers/probes purchased from Perkin Elmer, part No. 4310859). Every experiment was performed in triplicate. The entire study was conducted independently two times.
# Specific Colony Formation Efficiency (SCFE) determination. Replicon cells were loaded with compound(s) for 10 days under complete DMEM (without G418), with medium changes every 2-3 days. The total cytoplasmic RNA was extracted using RNA Easy kit from Qiagen (catalog No. 74104) and the RNA concentration was determined by absorbance at 260 nm. HCV replicon copy number in each RNA sample was determined by Taqman assay using a standard curve. For electroporation of RNA obtained from compound-treated replicon cells, 8 μg of total RNA suspended in 50 μl PBS was mixed with 50 μl suspension of 2×10^6 Huh-7 cells in a 0.1 cm cuvette (Bio-Rad, catalog No. 165-2089). As a control, wild type replicon RNA was serially diluted with total RNA from naïve Huh-7 cells.
# [2] = target: inosine monophosphate dehydrogenase (IMPDH); conditions: cited from J. Jain et al.; cited from earlier work
# [3] = human, in vivo; cited from earlier work
# Hepatitis C Virus = conditions: IFN-α monotherapy, chronic HCV infection, depending on genotype; cited from earlier work
compound,measurement,setting,value
"Nc1nc2c(ncn2[C@@H]2O[C@H](CO)[C@@H](O)[C@H]2O)c(=O)[nH]1 [Guan., guanosine]",No. of Colonies,[1]; 10 μM Guan.,210
same,Replicon Copy No.,[1]; 10 μM Guan.,12 copies X 10^7/8 μg total RNA
same,SCFE (Specific Colony Formation Efficiency),[1]; 10 μM Guan.,180 colonies/10^8 HCV RNA genomes
"COc1cc(NC(=O)Nc2cccc(CNC(=O)O[C@H]3CCOC3)c2)ccc1-c1cnco1 [IMPDH-I, (S)-N-3-[3-(3-methoxy-4-oxazol-5-yl-phenyl)ureido]-benzylcarbamic acid tetrahydrofuran-3-yl-ester]",pKi,[2],~8.00
same,No. of Colonies,[1]; 100 nM IMPDH-I,370
same,Replicon Copy No.,[1]; 100 nM IMPDH-I,10 copies X 10^7/8 μg total RNA
same,SCFE (Specific Colony Formation Efficiency),[1]; 100 nM IMPDH-I,360 colonies/10^8 HCV RNA genomes
same,effect on the replicon,"[1]; 100 nM IMPDH-I alone, Example 5",only a marginal effect
"COc1c(C)c2c(c(O)c1C/C=C(\C)CCC(=O)O)C(=O)OC2 [MPA, mycophenolic acid]",No. of Colonies,[1]; 2 μM MPA,470
same,Replicon Copy No.,[1]; 2 μM MPA,9 copies X 10^7/8 μg total RNA
same,SCFE (Specific Colony Formation Efficiency),[1]; 2 μM MPA,510 colonies/10^8 HCV RNA genomes
"NC(=O)c1ncn([C@@H]2O[C@H](CO)[C@@H](O)[C@H]2O)n1 [ribavirin, 1-beta-D-Ribofuranosyl-1H-1,2,4-triazole-3-carboxamide]",patients with reduction in hemoglobin of greater than 4 g/dl,[3],15.7%
same,No. of Colonies,[1]; 10 μM ribavirin,650
same,Replicon Copy No.,[1]; 10 μM ribavirin,14 copies X 10^7/8 μg total RNA
same,SCFE (Specific Colony Formation Efficiency),[1]; 10 μM ribavirin,480 colonies/10^8 HCV RNA genomes
same,No. of Colonies,[1]; 50 μM ribavirin,420
same,Replicon Copy No.,[1]; 50 μM ribavirin,12 copies X 10^7/8 μg total RNA
same,SCFE (Specific Colony Formation Efficiency),[1]; 50 μM ribavirin,360 colonies/10^8 HCV RNA genomes
same,No. of Colonies,[1]; 100 μM ribavirin,110
same,Replicon Copy No.,[1]; 100 μM ribavirin,6 copies X 10^7/8 μg total RNA
same,SCFE (Specific Colony Formation Efficiency),[1]; 100 μM ribavirin,200 colonies/10^8 HCV RNA genomes
same,reduction in the fitness of the replicon (specific colony formation efficiency),[1]; 100 μM ribavirin alone,~4 fold
interferon-alpha,response rate,Hepatitis C Virus,about 25%
